US11267844B2, “Spirothietane nucleosides” (Janssen Pharmaceutica NV, priority 2017, dated 2022)
Like-named read-outs stand apart in the source and are kept apart here.

Key:
[1] = system: HCV replicon (NS3-NS5B regions of HCV type 1b) in Huh-7 luc/neo cells; test: HCV replicon assay (Huh-Luc cells, luciferase read-out); type: cell-based; details: Hepatitis C virus, Huh-7, 72 h
Source text: The compounds of Formula (I) were examined for activity against HCV in a cellular assay. […] The cellular assay was based on a bicistronic expression construct, as described by Lohmann et al. (1999) Science vol. 285 pp. 110-113 with modifications described by Krieger et al. (2001) Journal of Virology 75: 4614-4624, in a multi-target screening strategy.
In essence, the method was as follows. The assay utilized the stably transfected cell line Huh-7 luc/neo (hereafter referred to as Huh-Luc). This cell line harbors an RNA encoding a bicistronic expression construct comprising the wild type NS3-NS5B regions of HCV type 1b translated from an internal ribosome entry site (IRES) from encephalomyocarditis virus (EMCV), preceded by a reporter portion (FfL-luciferase), and a selectable marker portion (neo^R, neomycine phosphotransferase). The construct is bordered by 5′ and 3′ NTRs (non-translated regions) from HCV genotype 1b. Continued culture of the replicon cells in the presence of G418 (neo^R) is dependent on the replication of the HCV-RNA. The stably transfected replicon cells that express HCV-RNA, which replicates autonomously and to high levels, encoding inter alia luciferase, were used for screening the antiviral compounds.
The replicon cells were plated in 384-well plates in the presence of the test and control compounds which were added in various concentrations. Following an incubation of three days, HCV replication was measured by assaying luciferase activity (using standard luciferase assay substrates and reagents and a Perkin Elmer ViewLux™ ultraHTS microplate imager). Replicon cells in the control cultures have high luciferase expression in the absence of any inhibitor. The inhibitory activity of the compound on luciferase activity was monitored on the Huh-Luc cells, enabling a dose-response curve for each test compound. EC50 values were then calculated, which value represents the amount of the compound required to decrease the level of detected luciferase activity by 50%, or more specifically, the ability of the genetically linked HCV replicon RNA to replicate.

DENV-2/16681/eGFP [2] = test: Antiviral activity against DENV-2/16681/eGFP in Huh-7 cells (eGFP read-out); type: cell-based, dengue virus serotype 2; details: Dengue virus, DENV2, Huh-7, 72 h, read-out: DENV Huh-7 (EC50, μM)
Method: (§1) The antiviral activity of the compounds against DENV-2/16681/eGFP was determined in a phenotypic antiviral assay with eGFP read-out, a measure for the amount of virus (TV-WI-03476 and TV-WI-05601). In parallel, cytotoxicity of the compounds was measured using ATPLite™ (PerkinElmer, Waltham, Mass.). The assay was performed in two different cell-lines (Vero and Huh-7) to exclude cell-specific activity of the compound.
(§2) DENV-2/16681/eGFP was produced by the transfection of the in vitro transcribed RNA of plasmid pFK-DVs-G2A (purchased from Prof. R. Bartenschlager, University of Heidelberg, Germany; FIG. 1) into Huh-7 cells (human hepatocarcinoma cells; kindly provided by Prof. R. Bartenschlager) (TV-WI-04247).
(§3) In brief, 2,500 Vero cells (African green monkey kidney cells; European Collection of Cell Cultures [ECACC], Porton Down, UK; catalogue number 84113001) or Huh-7 cells were seeded in 384-well plates containing 9-fold serially diluted test compound. After incubating 24 h at 37° C., Vero and Huh-7 cells were infected with DENV-2/16681/eGFP at a multiplicity of infection (MOI) of 1 and 5, respectively. After 3 days of incubation at 37° C., the viral replication was quantified by measuring eGFP expression in the cells with a laser microscope. The 50% effective concentration (EC50) was defined as the concentration inhibiting 50% of the eGFP expression of the compound-treated DENV-infected cells vs. the untreated DENV-infected cells (virus control), using the cell controls as baseline of eGFP signal (i.e., 0% signal). In the same way, the 90% effective concentration (EC90) was calculated.

[3] = Cytotoxicity in Huh-7 cells (ATPlite cell viability); type: cell-based; details: human, Table 1A, read-out: Tox Huh-7 (CC50)
Method: as §1
(§4) In parallel, cytotoxic effects of the compounds (50% cytotoxic concentration [CC50] and 90% cytotoxic concentration [CC90]) were evaluated using an ATPlite cell viability luminescence assay (PerkinElmer). To this end, ATPlite was added to the wells according to the supplier's instructions once the eGFP read-out was performed, and the luminescence was measured; a measure directly relating to the number of viable cells. The CC50 was determined as the 50% inhibitory concentration for the luminescent signal in compound-treated DENV-infected cells compared to untreated DENV-infected cells (virus control), using a medium control as baseline of emitted light (i.e., 0% signal).

[4] = Cytotoxicity in Vero cells (ATPlite cell viability); type: cell-based; details: African green monkey, Table 1A, read-out: Tox Vero (CC50)
Method: as §1, §4

DENV-2/16681/eGFP [5] = test: Antiviral activity against DENV-2/16681/eGFP in Vero cells (eGFP read-out); type: cell-based, dengue virus serotype 2; details: Dengue virus, DENV2, Vero, 72 h, read-out: DENV Vero (EC50, μM)
Method: as §1, §2, §3

CHIKV strain S27 = test: CHIKV CPE inhibition assay in Huh7 cells; type: cell-based; details: Chikungunya virus, Huh-7, 48 h
Method: The antiviral activities of the nucleoside analogs against chikungunya virus (CHIKV) were tested using a cell-based high-throughput CPE (cytopathic effect) inhibition assay. In this assay, CHIKV strain S27 and Huh7 cells (a human hepatoma cell line) were employed. The test compounds were prepared in a 9-point fourfold serial dilutions and plated in a 384-well plate. Then, a density of 8000 cells/well and an MOI (Multiplicity of Infection) of 0.25 CHIKV were added to each well. The plates were incubated at 37° C./5% CO2 for 2 days. The antiviral activity of a test compound was measured by addition of an ATPLite™ 1-step kit (PerkinElmer), which measures the ATP levels in live cells protected from viral CPE by a test compound. The cytotoxicity of test compounds was measured in parallel in the absence of virus infection. The readout is luminescence.

[6] = Table 1A, Huh-Luc replicon cells, 3 days, read-out: HCV Huh-7 (EC50)
[7] = read-out: CHIKV Huh-7 (EC50, μM)
[8] = Table 1A, Huh7 cells, MOI 0.25, 2 days, read-out: CHIKV Huh-7 (EC50)

Structure (SMILES) | EC50 [1, 6] | EC50 (DENV-2/16681/eGFP [2]) | CC50 [3] | CC50 [4] | EC50 (DENV-2/16681/eGFP [5]) | EC50 (CHIKV strain S27; [7]) | EC50 (CHIKV strain S27; [8]) | EC50 ([1]; read-out: HCV Huh-7 (EC50, μM))
Nc1ccn([C@@H]2O[C@](F)(CO)[C@@H](O)[C@]23CCS3)c(=O)n1 [Compound 27, 4-amino-1-((4R,5R,7S,8R)-7-fluoro-8-hydroxy-7-(hydroxymethyl)-6-oxa-1-thiaspiro[3.4]octan-5-yl)pyrimidin-2(1H)-one] | > 100 µM | 77 µM | > 100 µM | > 100 µM | 50 µM | > 100 µM |  | 
CC(C)OC(=O)[C@H](C)NP(=O)(OC[C@@]1(F)O[C@@H](n2ccc(N)nc2=O)[C@@]2(CCS2)[C@@H]1O)Oc1ccccc1 (stereo partly drawn) [Compound 31, (2S)-isopropyl 2-(((((4R,5R,7S,8R)-5-(4-amino-2-oxopyrimidin-1(2H)-yl)-7-fluoro-8-hydroxy-6-oxa-1-thiaspiro[3.4]octan-7-yl)methoxy)(phenoxy)phosphoryl)amino)propanoate] | 11 µM | 36 µM | > 100 µM | > 100 µM | > 100 µM |  | > 100 µM | 
O=c1ccn([C@@H]2O[C@](F)(COP(=O)(Oc3ccccc3Cl)OC3CCCC3)[C@@H](O)[C@]23CCS3)c(=O)[nH]1 (stereo partly drawn) [Compound 34, 2-chlorophenyl cyclopentyl (((4R,5R,7S,8R)-5-(2,4-dioxo-3,4-dihydropyrimidin-1(2H)-yl)-7-fluoro-8-hydroxy-6-oxa-1-thiaspiro[3.4]octan-7-yl)methyl) phosphate] |  | 53 µM | > 100 µM | > 100 µM | 35 µM | > 100 µM |  | > 100 µM
O=c1ccn([C@@H]2O[C@]3(F)COP(=O)(OC4CCCC4)O[C@H]3[C@]23CCS3)c(=O)[nH]1 (stereo partly drawn) [Compound 35, 1-((2′R,4aS,6R,7aR)-2-(cyclopentyloxy)-4a-fluoro-2-oxidotetrahydrospiro[furo[3,2-d][1,3,2]dioxaphosphinine-7,2′-thietan]-6-yl)pyrimidine-2,4(1H,3H)-dione] | 25 µM | > 100 µM | > 100 µM | > 100 µM | > 100 µM | 72 µM |  | 
CC(C)OP(=O)(OC[C@@]1(F)O[C@@H](n2ccc(=O)[nH]c2=O)[C@@]2(CCS2)[C@@H]1O)Oc1ccc(Cl)cc1 (stereo partly drawn) [Compound 37, 4-chlorophenyl (((4R,5R,7S,8R)-5-(2,4-dioxo-3,4-dihydropyrimidin-1(2H)-yl)-7-fluoro-8-hydroxy-6-oxa-1-thiaspiro[3.4]octan-7-yl)methyl) isopropyl phosphate] |  | > 100 µM | > 100 µM | > 100 µM | > 100 µM | > 100 µM |  | > 100 µM
O=c1ccn([C@@H]2O[C@](F)(COP(=O)(NC3CCC3)Oc3ccc(Cl)cc3)[C@@H](O)[C@]23CCS3)c(=O)[nH]1 (stereo partly drawn) [Compound 39, 4-chlorophenyl (((4R,5R,7S,8R)-5-(2,4-dioxo-3,4-dihydropyrimidin-1(2H)-yl)-7-fluoro-8-hydroxy-6-oxa-1-thiaspiro[3.4]octan-7-yl)methyl) cyclobutylphosphoramidate] | > 100 µM | 49 µM | > 100 µM | > 100 µM | 45 µM |  | > 100 µM | 
O=c1ccn([C@@H]2O[C@]3(F)CO[P@](=O)(NC4CCC4)O[C@H]3[C@]23CCS3)c(=O)[nH]1 [Compound 40a, 1-((2R,2′R,4aS,6R,7aR)-2-(cyclobutylamino)-4a-fluoro-2-oxidotetrahydrospiro[furo[3,2-d][1,3,2]dioxaphosphinine-7,2′-thietan]-6-yl)pyrimidine-2,4(1H,3H)-dione] | > 100 µM | > 100 µM | > 100 µM | > 100 µM | > 100 µM |  | > 100 µM | 
O=c1ccn([C@@H]2O[C@]3(F)CO[P@@](=O)(NC4CCC4)O[C@H]3[C@]23CCS3)c(=O)[nH]1 [Compound 40b, 1-((2S,2′R,4aS,6R,7aR)-2-(cyclobutylamino)-4a-fluoro-2-oxidotetrahydrospiro[furo[3,2-d][1,3,2]dioxaphosphinine-7,2′-thietan]-6-yl)pyrimidine-2,4(1H,3H)-dione] | > 100 µM | > 100 µM | > 100 µM | > 100 µM | > 100 µM |  | > 100 µM | 
